Data from paper PMC7555839 (Frontiers in Microbiology, 2020).
≈ marks a conversion by molar mass, not a printed value. Where two headings read alike, the source gives them in different places.

What was measured:
[1] = test system: Salmonella typhimurium TA98; conditions: Positive control
[2] = test system: Salmonella typhimurium TA100; conditions: Positive control
[3] = test system: Salmonella typhimurium TA1535; conditions: Positive control
[4] = test system: Escherichia coli mutant [wp2 (pKM101)]; conditions: Positive control, + S9, 4 µg/well
[5] = test system: Salmonella typhimurium TA1537; experiment: Ames test; conditions: Positive control
[6] = test system: Staphylococcus aureus USA300 JE2; experiment: Broth microdilution (MIC/MBC); type: cell-based; conditions: USA300, broth microdilution, starter concentration of the tolerance assay, read-out: MIC value for USA300
MRSA strain 43484 = experiment: Mouse skin (wound) infection model, topical treatment; type: in vivo, Staphylococcus aureus; conditions: 2%, 50 μl topical twice daily for 3 days, female mice, skin biopsies day 4
Procedure: To study the effect of topical treatment with JBC 1847 against MRSA strain 43484, a mouse skin infection model was established. Initially, female mice (18–22 g) were orally treated with 45 μl nurofen (20 mg ibuprofen/ml) and anaesthetized with 0.15 ml s.c. of Zoletil mix. The fur was removed from an area of 6 cm^2 and a part of epidermis was subsequently scraped off to obtain a 1 cm^2 superficial skin lesion. The mice were inoculated with 10 μl of a saline solution containing approximately 10^7 CFU. The day after inoculation, topical treatment with 50 μl test compound was initiated and performed twice daily for a 3-day period. Fucidic acid was included as a positive control, and vehicle treatment was included as a negative control. Through the entire study, the behavior and clinical signs of the mice were carefully observed. Mice were killed the day after last treatment, and skin biopsies from the wounded area were collected. The skin samples were homogenized using a Dispomixer and serially diluted in saline/Triton X. To determine the bacterial concentration, 20 μl spots were transferred to MRSA Brilliance agar plates (Oxoid, Thermo Scientific, Roskilde, Denmark) and incubated 20–48 h at 35°C.
Data were statically analyzed and visualized using RStudio v3.6.3 ([R Core Team, 2020]) and Microsoft excel. In general, the values reflecting the bacterial concentration (CFU/ml) were transformed into a logarithmic scale. In the growth and viability assay, the mean numbers of the bacterial concentrations from the triplicates were plotted against time and standard deviations shown as error bars. To investigate differences in bacterial concentration between treatment groups in the in vivo assay, multiple group comparisons were performed using ANOVA and P < 0.05 considered significant. The data was visualized in a standard box plot.

[7] = test system: fusidic acid-resistant S. aureus isolates; design: method as in Castanheira et al., 2010; conditions: ref Castanheira et al., 2010; cited from earlier work
plasma proteins = conditions: cited from earlier work
S. aureus USA300 = experiment: Induced tolerance assay (23 days); conditions: for MIC: Staphylococcus aureus
MRSA strain = test system: MRSA strain; design: method as in Nehme et al., 2018; conditions: broth dilution method, ref Nehme et al., 2018; cited from earlier work
E. coli strains = test system: E. coli strains; design: method as in Nehme et al., 2018; conditions: broth dilution method, ref Nehme et al., 2018; cited from earlier work

## Nc1ccc2cc3ccccc3cc2c1 [2-AA, 2-Aminoanthracene, reference compound]
[1]; TA98, + S9, 0.6 µg/well
  Mean number of reverse mutated colonies: 332.0 ± 36.66
[2]; TA100, + S9, 0.6 µg/well
  Mean number of reverse mutated colonies: 240.0 ± 49.15
[3]; TA1535, + S9, 0.6 µg/well
  Mean number of reverse mutated colonies: 34.00 ± 5.20
[4]
  Mean number of reverse mutated colonies: 161.33 ± 18.90
[5]; TA1537, + S9, 0.6 µg/well
  Mean number of reverse mutated colonies: 60.00 ± 5.00

## O=[N+]([O-])c1ccc2c(c1)Cc1ccccc1-2 [2-NF, 2-Nitrofluorene, reference compound]
[1]; TA98, −S9, 2 µg/well
  Mean number of reverse mutated colonies: 268.00 ± 28.84

## CC(=O)O[C@H]1C[C@@]2(C)[C@@H](C[C@@H](O)[C@H]3[C@@]4(C)CC[C@@H](O)[C@@H](C)[C@@H]4CC[C@@]32C)/C1=C(\CCC=C(C)C)C(=O)O [Fusidic acid, reference compound]
[6]
  MIC: 0.03 µg/mL (≈ 0.0581 µM)
MRSA strain 43484
  Reduction of bacterial counts compared with the vehicle: 1.5 log10 CFU
[7]
  MIC values (highly elevated): ≥ 512 µg/mL
Plasma proteins; ref Zeitlinger et al., 2011
  PPB (plasma protein binding): approximately 98%
S. aureus USA300; USA300, 24 h, read-out: MIC Day 1
  MIC: 0.03 µg/mL (≈ 0.0581 µM)
S. aureus USA300; USA300, 552 h, read-out: MIC Day 23
  MIC: 7 µg/mL (≈ 13.5 µM)
S. aureus USA300; tolerance assay, during the 23 days
  Increase in MIC: 233 fold

## COc1ccc2nc3cc(Cl)ccc3c(NCCCNCCCl)c2c1 [ICR 191, Acridine Mutagen (ICR 191), reference compound]
[5]; TA1537, −S9, 0.2 µg/well
  Mean number of reverse mutated colonies: 54.67 ± 16.26

## CN(C)CCCN1c2ccccc2Sc2ccccc21 [Promazine]
MRSA strain
  MIC: 128 mg/L (≈ 450 µM)
E. coli strains
  MIC: 128 mg/L (≈ 450 µM)

## [N-]=[N+]=[N-].[Na+] [SA, Sodium azide, reference compound]
[2]; TA100, −S9, 0.24 µg/well
  Mean number of reverse mutated colonies: 176.0 ± 46.13
[3]; TA1535, −S9, 0.24 µg/well
  Mean number of reverse mutated colonies: 111.0 ± 9.54

## CO/N=C(\C(=O)N[C@@H]1C(=O)N2C(C(=O)O)=C(CSc3nc(=O)c(=O)[nH]n3C)CS[C@H]12)c1csc(N)n1 [ceftriaxone]
Plasma proteins; ref Dutta et al., 2001
  PPB (plasma protein binding): 90–95%
